Test results as given in ChEMBL document CHEMBL3046211, “Synthesis, antimicrobial, analgesic activity, and molecular docking studies of novel 1-(5,7-dichloro-1,3-benzoxazol-2-yl)-3-phenyl-1H-pyrazole-4-carbaldehyde derivatives” (2013).
≈ marks a conversion by molar mass, not a printed value.

What was measured:
Candida albicans [1] = experiment: Antifungal activity against Candida albicans at 40 ug/100 ul after 72 hrs by agar well diffusion method; format: functional
Aspergillus niger [2] = experiment: Antifungal activity against Aspergillus niger at 40 ug/100 ul after 72 hrs by agar well diffusion method; format: functional
Mus musculus = experiment: Analgesic activity in Swiss albino mouse assessed as protection against acetic acid-induced writhing at 100 mg/kg, po administered 1 hr prior to acetic acid-challenge measured after 5 mins for 20 mins relative to control; format: functional
Staphylococcus aureus [3] = experiment: Antibacterial activity against Staphylococcus aureus pateint isolate; format: functional
Candida albicans [4] = experiment: Antifungal activity against Candida albicans at 40 ug/ml after 72 hrs by agar well diffusion method; format: functional; conditions: read-out: IZ
Aspergillus niger [5] = experiment: Antifungal activity against Aspergillus niger at 40 ug/ml after 72 hrs by agar well diffusion method; format: functional; conditions: read-out: IZ
Salmonella typhi [6] = experiment: Antibacterial activity against Salmonella typhi pateint isolate at 40 ug/ml after 24 hrs by agar well diffusion method; format: functional, Salmonella enterica subsp. enterica serovar Typhi; conditions: Salmonella enterica, read-out: IZ
Bacillus subtilis [7] = experiment: Antibacterial activity against Bacillus subtilis pateint isolate at 40 ug/ml after 24 hrs by agar well diffusion method; format: functional; conditions: read-out: IZ
Escherichia coli [8] = experiment: Antibacterial activity against Escherichia coli pateint isolate at 40 ug/ml after 24 hrs by agar well diffusion method; format: functional
Candida albicans [9] = experiment: Antifungal activity against Candida albicans; format: functional
Escherichia coli [10] = experiment: Antibacterial activity against Escherichia coli pateint isolate; format: functional
Aspergillus niger [11] = experiment: Antifungal activity against Aspergillus niger; format: functional
Salmonella typhi [12] = experiment: Antibacterial activity against Salmonella typhi pateint isolate; format: functional, Salmonella enterica subsp. enterica serovar Typhi; conditions: Salmonella enterica
Bacillus subtilis [13] = experiment: Antibacterial activity against Bacillus subtilis pateint isolate; format: functional
Staphylococcus aureus [14] = experiment: Antibacterial activity against Staphylococcus aureus pateint isolate at 40 ug/ml after 24 hrs by agar well diffusion method; format: functional; conditions: read-out: IZ
Salmonella typhi [15] = experiment: Antibacterial activity against Salmonella typhi pateint isolate at 40 ug/100 ul after 24 hrs by agar well diffusion method; format: functional, Salmonella enterica subsp. enterica serovar Typhi

SMILES	inhibition zone (IZ) (Candida albicans [1])	inhibition zone (IZ) (Aspergillus niger [2])	Activity (Mus musculus)	MIC (Staphylococcus aureus [3])	zone of inhibition at 40 µg/mL (Candida albicans [4])	zone of inhibition at 40 µg/mL (Aspergillus niger [5])	zone of inhibition at 40 µg/mL (Salmonella typhi [6])	zone of inhibition at 40 µg/mL (Bacillus subtilis [7])	inhibition zone (IZ) (Escherichia coli [8])	MIC (Candida albicans [9])	MIC (Escherichia coli [10])	MIC (Aspergillus niger [11])	MIC (Salmonella typhi [12])	MIC (Bacillus subtilis [13])	zone of inhibition at 40 µg/mL (Staphylococcus aureus [14])	inhibition zone (IZ) (Salmonella typhi [15])
OC(Cn1cncn1)(Cn1cncn1)c1ccc(F)cc1F [FLUCONAZOLE]	23 mm	22 mm	–	–	–	–	–	–	–	–	–	–	–	–	–	–
CC(=O)Oc1ccccc1C(=O)O [ASPIRIN]	–	–	58.74%	–	–	–	–	–	–	–	–	–	–	–	–	–
O=Cc1cn(-c2nc3cc(Cl)cc(Cl)c3o2)nc1-c1ccc(O)cc1	–	–	55.78%	20 µg/mL (≈ 53.4 µM)	22 mm	22 mm	21 mm	23 mm	22 mm	20 µg/mL (≈ 53.4 µM)	30 µg/mL (≈ 80.2 µM)	30 µg/mL (≈ 80.2 µM)	30 µg/mL (≈ 80.2 µM)	20 µg/mL (≈ 53.4 µM)	23 mm	–
O=Cc1cn(-c2nc3cc(Cl)cc(Cl)c3o2)nc1-c1ccc(Cl)c(Cl)c1	–	–	50%	30 µg/mL (≈ 70.2 µM)	22 mm	22 mm	20 mm	22 mm	22 mm	40 µg/mL (≈ 93.7 µM)	30 µg/mL (≈ 70.2 µM)	40 µg/mL (≈ 93.7 µM)	30 µg/mL (≈ 70.2 µM)	30 µg/mL (≈ 70.2 µM)	22 mm	–
O=Cc1cn(-c2nc3cc(Cl)cc(Cl)c3o2)nc1-c1ccc(Br)cc1	–	–	54.63%	20 µg/mL (≈ 45.8 µM)	23 mm	22 mm	21 mm	22 mm	22 mm	30 µg/mL (≈ 68.6 µM)	20 µg/mL (≈ 45.8 µM)	20 µg/mL (≈ 45.8 µM)	30 µg/mL (≈ 68.6 µM)	20 µg/mL (≈ 45.8 µM)	23 mm	–
O=C(O)c1cn(C2CC2)c2cc(N3CCNCC3)c(F)cc2c1=O [CIPROFLOXACIN]	–	–	–	–	–	–	–	–	–	–	–	–	–	–	–	21 mm
COc1ccc(-c2nn(-c3nc4cc(Cl)cc(Cl)c4o3)cc2C=O)cc1	–	–	50.27%	30 µg/mL (≈ 77.3 µM)	20 mm	20 mm	19 mm	20 mm	22 mm	40 µg/mL (≈ 103 µM)	40 µg/mL (≈ 103 µM)	30 µg/mL (≈ 77.3 µM)	40 µg/mL (≈ 103 µM)	40 µg/mL (≈ 103 µM)	19 mm	–
Cc1ccc(-c2nn(-c3nc4cc(Cl)cc(Cl)c4o3)cc2C=O)cc1	–	–	51.4%	30 µg/mL (≈ 80.6 µM)	19 mm	19 mm	20 mm	20 mm	21 mm	30 µg/mL (≈ 80.6 µM)	40 µg/mL (≈ 107 µM)	30 µg/mL (≈ 80.6 µM)	30 µg/mL (≈ 80.6 µM)	30 µg/mL (≈ 80.6 µM)	21 mm	–
